pIC50: −log10 of the molar value.
Tests used:
[1] = tested on: 98 CNS protein targets; experiment: Eurofins CNS SafetyScreen panel at 10 μM; assay type: binding; conditions: 10-μM concentration
[2] = target: T1, human 5-HT2B (Homo sapiens, UniProt P41595); experiment: Eurofins CNS SafetyScreen panel: 5-HT2B (vs ± DOI); assay type: binding
T1 construct: purchased Eurofins (contract screening, CNS SafetyScreen panel)

[3] = target: T2, human recombinant MAO-B (Homo sapiens, UniProt P27338); experiment: Eurofins IC50 determination at human recombinant MAO-B; assay type: binding
T2 construct: purchased Eurofins (contract assay)

[4] = tested on: Na+ channel (site 2); experiment: Eurofins panel: Na+ channel (site 2) (antagonist radioligand); assay type: binding; conditions: compound concentration 1.0E-05 M
[5] = tested on: NMDA; experiment: Eurofins panel: NMDA (antagonist radioligand); assay type: binding; conditions: compound concentration 1.0E-05 M
[6] = tested on: PCP; experiment: Eurofins panel: PCP (antagonist radioligand); assay type: binding; conditions: compound concentration 1.0E-05 M
[7] = target: T3, PDE4D2 (h) (Homo sapiens, UniProt Q08499); experiment: Eurofins panel: PDE4D2 (h); assay type: biochemical; conditions: compound concentration 1.0E-05 M
T3 construct: purchased Eurofins (CNS SafetyScreen panel, contract assay)

[8] = target: GABA transaminase (Rattus norvegicus, UniProt P50554); experiment: GABA transaminase, Eurofins assay 461; assay type: biochemical; conditions: Enzymatic activity; 1.0E-05 M
[9] = target: kappa (h) (KOP) (Homo sapiens, UniProt P41145); experiment: biochemical; assay type: binding
[10] = tested on: Ca2+ channel (N); assay type: binding
[11] = target: T4, cathepsin B (h) (Homo sapiens, UniProt P07858); experiment: Eurofins panel: cathepsin B (h) enzymatic activity; assay type: biochemical; conditions: 1.0E-05 M; cathepsin B (h)
T4 construct: Eurofins (panel run by the vendor)

[12] = target: 5-HT7 (h) (Homo sapiens, UniProt P34969); conditions: 1.0E-05 M; 5-HT7 (h) (agonist radioligand)
[13] = target: norepinephrine transporter (h) (Homo sapiens, UniProt P23975); conditions: compound concentration 1.0E-05 M
[14] = target: OX1 (h) (Homo sapiens, UniProt O43613); conditions: compound concentration 1.0E-05 M
[15] = target: p38alpha kinase (h) (Homo sapiens, UniProt Q16539); conditions: compound concentration 1.0E-05 M
[16] = tested on: TNF-alpha (h); conditions: compound concentration 1.0E-05 M
[17] = target: alpha2B (h) (Homo sapiens, UniProt P18089)
[18] = target: V1a (h) (Homo sapiens, UniProt P37288); conditions: compound concentration 1.0E-05 M
[19] = target: beta1 (h) (Homo sapiens, UniProt P08588); conditions: 1.0E-05 M; beta1 (h) (agonist radioligand)
[20] = target: JNK1 (h) (Homo sapiens, UniProt P45983); conditions: Enzymatic activity; 1.0E-05 M
[21] = target: CYP2C19 (Homo sapiens, UniProt P33261); experiment: in vitro; conditions: human liver microsomes, probe omeprazole
[22] = target: delta (DOP) (h) (Homo sapiens, UniProt P41143); experiment: biochemical
[23] = target: M2 (h) (Homo sapiens, UniProt P08172); experiment: biochemical
[24] = target: CB2 (h) (Homo sapiens, UniProt P34972); experiment: CB2 (h) (agonist radioligand), Eurofins assay 37
[25] = target: mu (MOP) (h) (Homo sapiens, UniProt P35372); experiment: Eurofins panel: mu (MOP) (h) (agonist radioligand); conditions: compound concentration 1.0E-05 M
[26] = target: M4 (h) (Homo sapiens, UniProt P08173); experiment: M4 (h) (antagonist radioligand), Eurofins assay 96
[27] = target: T5, M5 (h) (Homo sapiens, UniProt P08912); experiment: M5 (h) (antagonist radioligand), Eurofins assay 97
T5 sequence (P08912 1-532): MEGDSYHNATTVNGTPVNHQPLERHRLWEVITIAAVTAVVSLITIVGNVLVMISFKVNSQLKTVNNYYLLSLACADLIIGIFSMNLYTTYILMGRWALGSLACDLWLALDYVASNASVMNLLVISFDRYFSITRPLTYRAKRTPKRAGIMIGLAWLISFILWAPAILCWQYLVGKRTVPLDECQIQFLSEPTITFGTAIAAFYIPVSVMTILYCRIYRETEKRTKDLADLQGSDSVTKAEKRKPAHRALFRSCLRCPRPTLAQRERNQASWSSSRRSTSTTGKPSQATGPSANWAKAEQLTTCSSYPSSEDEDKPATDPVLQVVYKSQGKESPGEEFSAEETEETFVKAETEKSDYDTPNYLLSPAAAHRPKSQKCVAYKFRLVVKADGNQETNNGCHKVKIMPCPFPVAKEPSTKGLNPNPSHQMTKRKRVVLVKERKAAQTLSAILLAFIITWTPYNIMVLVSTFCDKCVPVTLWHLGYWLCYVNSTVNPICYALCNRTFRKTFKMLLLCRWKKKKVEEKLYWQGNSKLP

[28] = target: 5-HT1B (h) (Homo sapiens, UniProt P28222); experiment: Eurofins panel: 5-HT1B (h) (antagonist radioligand); conditions: 1.0E-05 M
[29] = target: 5-HT4e (h) (Homo sapiens, UniProt Q13639); experiment: Eurofins panel: 5-HT4e (h) (antagonist radioligand); conditions: 1.0E-05 M; 5-HT4e (h) (antagonist radioligand)
[30] = target: 5-HT transporter (h) (Homo sapiens, UniProt P31645); experiment: Eurofins panel: 5-HT transporter (h) (antagonist radioligand); conditions: 1.0E-05 M
[31] = target: dopamine transporter (h) (Homo sapiens, UniProt Q01959); experiment: dopamine transporter (h) (antagonist radioligand), Eurofins assay 52
Sequence of dopamine transporter (h) (Q01959 whole entry): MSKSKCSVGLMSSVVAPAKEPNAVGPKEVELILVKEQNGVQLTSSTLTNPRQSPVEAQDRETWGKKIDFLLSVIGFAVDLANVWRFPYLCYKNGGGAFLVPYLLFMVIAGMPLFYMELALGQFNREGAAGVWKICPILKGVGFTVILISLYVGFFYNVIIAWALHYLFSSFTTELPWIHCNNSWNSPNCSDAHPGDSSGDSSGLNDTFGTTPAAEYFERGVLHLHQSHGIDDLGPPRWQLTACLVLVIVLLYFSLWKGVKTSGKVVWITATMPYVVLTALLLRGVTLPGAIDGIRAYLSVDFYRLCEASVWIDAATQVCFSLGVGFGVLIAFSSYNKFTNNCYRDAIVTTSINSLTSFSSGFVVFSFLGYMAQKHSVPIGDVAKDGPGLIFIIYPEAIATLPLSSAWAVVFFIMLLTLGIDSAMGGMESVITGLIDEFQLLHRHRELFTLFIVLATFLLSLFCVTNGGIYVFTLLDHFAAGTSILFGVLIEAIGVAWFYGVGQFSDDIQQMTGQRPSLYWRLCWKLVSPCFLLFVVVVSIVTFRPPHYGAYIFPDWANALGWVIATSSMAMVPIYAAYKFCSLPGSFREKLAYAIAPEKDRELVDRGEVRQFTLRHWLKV

T1 sequence (P41595 whole entry): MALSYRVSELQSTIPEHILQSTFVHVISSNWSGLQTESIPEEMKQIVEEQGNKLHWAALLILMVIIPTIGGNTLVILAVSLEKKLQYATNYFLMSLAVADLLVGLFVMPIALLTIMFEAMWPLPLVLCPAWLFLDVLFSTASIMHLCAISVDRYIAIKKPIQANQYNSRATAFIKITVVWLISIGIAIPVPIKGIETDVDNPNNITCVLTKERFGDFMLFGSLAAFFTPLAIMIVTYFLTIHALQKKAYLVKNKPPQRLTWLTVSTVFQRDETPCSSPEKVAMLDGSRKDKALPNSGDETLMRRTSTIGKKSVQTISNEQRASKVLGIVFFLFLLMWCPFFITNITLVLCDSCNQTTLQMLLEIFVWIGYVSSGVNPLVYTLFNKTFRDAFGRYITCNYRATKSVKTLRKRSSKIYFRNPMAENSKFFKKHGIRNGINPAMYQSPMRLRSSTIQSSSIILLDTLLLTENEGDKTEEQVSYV
Sequence of CYP2C19 (P33261 whole entry): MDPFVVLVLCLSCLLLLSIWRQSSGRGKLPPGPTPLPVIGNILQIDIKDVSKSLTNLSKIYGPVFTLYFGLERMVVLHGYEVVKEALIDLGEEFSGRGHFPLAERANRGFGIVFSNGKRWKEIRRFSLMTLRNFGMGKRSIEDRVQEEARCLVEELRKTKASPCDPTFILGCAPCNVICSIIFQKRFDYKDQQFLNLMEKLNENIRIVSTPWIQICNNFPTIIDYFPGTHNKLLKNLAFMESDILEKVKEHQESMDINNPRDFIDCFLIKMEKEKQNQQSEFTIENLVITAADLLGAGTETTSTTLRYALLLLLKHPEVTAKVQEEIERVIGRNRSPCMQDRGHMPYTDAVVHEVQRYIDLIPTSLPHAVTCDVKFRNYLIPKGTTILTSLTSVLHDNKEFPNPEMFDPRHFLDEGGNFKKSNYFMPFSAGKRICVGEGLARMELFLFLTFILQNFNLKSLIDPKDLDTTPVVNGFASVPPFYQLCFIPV
T2 sequence (P27338 whole entry): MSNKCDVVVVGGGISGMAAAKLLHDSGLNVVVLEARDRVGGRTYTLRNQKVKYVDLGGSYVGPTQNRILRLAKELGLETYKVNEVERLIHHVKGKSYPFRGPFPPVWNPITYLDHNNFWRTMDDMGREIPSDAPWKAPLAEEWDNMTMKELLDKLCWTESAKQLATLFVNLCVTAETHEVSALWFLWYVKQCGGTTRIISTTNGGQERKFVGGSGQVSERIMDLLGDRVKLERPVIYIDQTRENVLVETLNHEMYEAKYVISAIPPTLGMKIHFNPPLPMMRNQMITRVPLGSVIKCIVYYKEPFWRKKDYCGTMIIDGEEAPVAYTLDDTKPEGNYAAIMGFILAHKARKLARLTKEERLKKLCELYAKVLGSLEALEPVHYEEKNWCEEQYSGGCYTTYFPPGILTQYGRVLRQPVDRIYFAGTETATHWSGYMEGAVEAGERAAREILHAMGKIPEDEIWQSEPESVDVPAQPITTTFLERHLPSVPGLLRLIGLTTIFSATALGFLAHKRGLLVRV
Sequence of M4 (h) (P08173 whole entry): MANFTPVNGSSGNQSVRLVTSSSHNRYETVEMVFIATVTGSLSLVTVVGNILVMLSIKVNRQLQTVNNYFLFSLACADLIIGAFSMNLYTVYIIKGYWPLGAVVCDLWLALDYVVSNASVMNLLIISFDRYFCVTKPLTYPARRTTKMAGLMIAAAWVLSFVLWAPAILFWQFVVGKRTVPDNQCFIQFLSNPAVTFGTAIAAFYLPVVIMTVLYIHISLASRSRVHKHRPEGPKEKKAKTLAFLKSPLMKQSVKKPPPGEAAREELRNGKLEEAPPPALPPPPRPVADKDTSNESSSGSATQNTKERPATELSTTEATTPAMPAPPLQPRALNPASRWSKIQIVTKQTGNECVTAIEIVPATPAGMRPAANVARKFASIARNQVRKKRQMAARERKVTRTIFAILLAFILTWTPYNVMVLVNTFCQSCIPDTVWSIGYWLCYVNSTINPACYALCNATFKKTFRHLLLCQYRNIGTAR
Sequence of 5-HT7 (h) (P34969 whole entry): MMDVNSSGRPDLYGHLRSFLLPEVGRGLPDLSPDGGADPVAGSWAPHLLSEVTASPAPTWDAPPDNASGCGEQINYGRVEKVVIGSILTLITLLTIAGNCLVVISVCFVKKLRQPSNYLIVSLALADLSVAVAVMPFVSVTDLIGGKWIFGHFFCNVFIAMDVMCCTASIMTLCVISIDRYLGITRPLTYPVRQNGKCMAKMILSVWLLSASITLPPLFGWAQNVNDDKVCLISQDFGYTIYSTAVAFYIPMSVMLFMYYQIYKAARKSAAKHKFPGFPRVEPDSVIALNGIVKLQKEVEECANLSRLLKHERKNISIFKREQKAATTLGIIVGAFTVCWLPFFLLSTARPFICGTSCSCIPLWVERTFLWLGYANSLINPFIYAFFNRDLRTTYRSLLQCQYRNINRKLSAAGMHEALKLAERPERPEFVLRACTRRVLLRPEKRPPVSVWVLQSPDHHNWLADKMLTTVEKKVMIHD
Sequence of CB2 (h) (P34972 whole entry): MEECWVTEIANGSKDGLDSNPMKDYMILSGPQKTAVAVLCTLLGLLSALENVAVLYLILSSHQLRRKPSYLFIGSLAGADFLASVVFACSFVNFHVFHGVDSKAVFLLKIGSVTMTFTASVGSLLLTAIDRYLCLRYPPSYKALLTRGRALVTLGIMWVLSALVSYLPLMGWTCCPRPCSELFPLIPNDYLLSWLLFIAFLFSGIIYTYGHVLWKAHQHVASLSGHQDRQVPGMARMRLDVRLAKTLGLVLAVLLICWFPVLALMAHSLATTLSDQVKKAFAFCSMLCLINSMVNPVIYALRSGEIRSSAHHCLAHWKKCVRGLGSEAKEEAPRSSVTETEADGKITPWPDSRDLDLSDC
Sequence of 5-HT4e (h) (Q13639 1-378 isoform Q13639-5): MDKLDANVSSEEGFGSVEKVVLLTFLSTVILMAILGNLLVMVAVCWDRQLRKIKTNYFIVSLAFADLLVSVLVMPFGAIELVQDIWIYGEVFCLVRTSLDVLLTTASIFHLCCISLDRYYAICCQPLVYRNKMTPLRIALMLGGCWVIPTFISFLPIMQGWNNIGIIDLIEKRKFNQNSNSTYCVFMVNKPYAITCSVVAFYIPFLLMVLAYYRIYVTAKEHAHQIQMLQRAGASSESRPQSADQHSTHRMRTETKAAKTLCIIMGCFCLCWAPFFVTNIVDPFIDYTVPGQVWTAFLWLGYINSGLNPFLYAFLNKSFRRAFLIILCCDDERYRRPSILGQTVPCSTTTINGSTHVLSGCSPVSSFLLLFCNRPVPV
Sequence of beta1 (h) (P08588 whole entry): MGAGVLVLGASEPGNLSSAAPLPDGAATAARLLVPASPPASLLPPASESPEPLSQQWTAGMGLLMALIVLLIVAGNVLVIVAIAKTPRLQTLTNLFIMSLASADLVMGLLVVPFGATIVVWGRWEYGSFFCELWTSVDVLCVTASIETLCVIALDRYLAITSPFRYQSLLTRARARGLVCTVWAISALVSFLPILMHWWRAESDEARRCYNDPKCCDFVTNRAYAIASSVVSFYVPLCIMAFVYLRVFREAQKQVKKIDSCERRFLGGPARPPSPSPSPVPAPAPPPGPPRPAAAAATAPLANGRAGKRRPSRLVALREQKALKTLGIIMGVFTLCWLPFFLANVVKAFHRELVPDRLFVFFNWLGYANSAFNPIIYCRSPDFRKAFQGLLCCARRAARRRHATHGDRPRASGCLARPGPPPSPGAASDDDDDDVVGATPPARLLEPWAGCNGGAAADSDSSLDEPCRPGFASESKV
Sequence of norepinephrine transporter (h) (P23975 whole entry): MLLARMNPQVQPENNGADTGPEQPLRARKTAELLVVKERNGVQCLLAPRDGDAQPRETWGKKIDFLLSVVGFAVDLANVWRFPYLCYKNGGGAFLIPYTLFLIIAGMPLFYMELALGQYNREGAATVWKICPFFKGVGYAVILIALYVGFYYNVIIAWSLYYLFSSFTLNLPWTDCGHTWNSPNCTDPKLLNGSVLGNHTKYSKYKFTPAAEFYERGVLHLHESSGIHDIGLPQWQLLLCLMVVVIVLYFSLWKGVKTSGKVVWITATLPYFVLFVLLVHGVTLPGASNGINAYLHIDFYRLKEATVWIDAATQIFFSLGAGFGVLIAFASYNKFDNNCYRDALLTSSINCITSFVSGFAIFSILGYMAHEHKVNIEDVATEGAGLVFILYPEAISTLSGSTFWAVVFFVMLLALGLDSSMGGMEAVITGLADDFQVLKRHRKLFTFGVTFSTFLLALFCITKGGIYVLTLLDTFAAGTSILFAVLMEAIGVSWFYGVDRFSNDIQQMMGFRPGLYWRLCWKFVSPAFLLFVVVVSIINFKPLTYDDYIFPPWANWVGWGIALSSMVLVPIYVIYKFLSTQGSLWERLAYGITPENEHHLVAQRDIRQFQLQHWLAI

Compound: Fc1nc(N2CCOCC2)ccc1-c1cc2ccccc2[nH]1 [Compound 75, 4-(6-Fluoro-5-(1H-indol-2-yl)pyridin-2-yl)morpholine]
- inhibition at 96 of 98 CNS targets [1]: ≤ 25.3%
- % Inhibition, Specific binding ([2]; 1.0E-05 M, 5-HT2B (h) (agonist radioligand)): 44.5993%
- inhibition at human 5-HT2B (vs ± DOI) ([2]; 10-μM concentration): 44.6%
- pIC50 [3]: 5.52
- % Inhibition, Specific binding [4]: -1.89E+01%
- % Inhibition, Specific binding [5]: -1.90E-01%
- % Inhibition, Specific binding [6]: -3.84E+00%
- % Inhibition, Enzymatic activity [7]: -7.60E+00%
- inhibition at 10 µM [8]: -0.726%
- inhibition at 10 µM [9]: 7.11%
- % Inhibition, Specific binding [10]: -3.62E+00%
- % Inhibition, Enzymatic activity [11]: -8.47E+00%
- % Inhibition, Specific binding [12]: -1.16E+00%
- % Inhibition, Specific binding [13]: -1.11E+01%
- % Inhibition, Specific binding [14]: 6.092%
- % Inhibition, Enzymatic activity [15]: 10.339%
- % Inhibition, Specific binding [16]: 0.1083%
- % Inhibition, Specific binding [17]: 2.179%
- % Inhibition, Specific binding [18]: -8.82E-01%
- % Inhibition, Specific binding [19]: 12.2039%
- % Inhibition [20]: -3.56E-01%
- inhibition at 10 µM [21]: -0.914%
- inhibition at 10 µM [22]: -13.7%
- inhibition at 10 µM [23]: -12.8%
- inhibition at 10 µM [24]: -17.9%
- % Inhibition, Specific binding [25]: -1.17E+00%
- inhibition at 10 µM [26]: -20.6%
- inhibition at 10 µM [27]: 1.64%
- % Inhibition, Specific binding [28]: -1.91E+01%
- % Inhibition, Specific binding [29]: 10.412%
- % Inhibition, Specific binding [30]: -9.53E+00%
- inhibition at 10 µM [31]: 17.2%
